For this assay, the target named is T1, purified human HDAC6 (Homo sapiens, UniProt Q9UBN7).
T1 construct: purchased BPS Bioscience 5006
T1 sequence (Q9UBN7 1-1215): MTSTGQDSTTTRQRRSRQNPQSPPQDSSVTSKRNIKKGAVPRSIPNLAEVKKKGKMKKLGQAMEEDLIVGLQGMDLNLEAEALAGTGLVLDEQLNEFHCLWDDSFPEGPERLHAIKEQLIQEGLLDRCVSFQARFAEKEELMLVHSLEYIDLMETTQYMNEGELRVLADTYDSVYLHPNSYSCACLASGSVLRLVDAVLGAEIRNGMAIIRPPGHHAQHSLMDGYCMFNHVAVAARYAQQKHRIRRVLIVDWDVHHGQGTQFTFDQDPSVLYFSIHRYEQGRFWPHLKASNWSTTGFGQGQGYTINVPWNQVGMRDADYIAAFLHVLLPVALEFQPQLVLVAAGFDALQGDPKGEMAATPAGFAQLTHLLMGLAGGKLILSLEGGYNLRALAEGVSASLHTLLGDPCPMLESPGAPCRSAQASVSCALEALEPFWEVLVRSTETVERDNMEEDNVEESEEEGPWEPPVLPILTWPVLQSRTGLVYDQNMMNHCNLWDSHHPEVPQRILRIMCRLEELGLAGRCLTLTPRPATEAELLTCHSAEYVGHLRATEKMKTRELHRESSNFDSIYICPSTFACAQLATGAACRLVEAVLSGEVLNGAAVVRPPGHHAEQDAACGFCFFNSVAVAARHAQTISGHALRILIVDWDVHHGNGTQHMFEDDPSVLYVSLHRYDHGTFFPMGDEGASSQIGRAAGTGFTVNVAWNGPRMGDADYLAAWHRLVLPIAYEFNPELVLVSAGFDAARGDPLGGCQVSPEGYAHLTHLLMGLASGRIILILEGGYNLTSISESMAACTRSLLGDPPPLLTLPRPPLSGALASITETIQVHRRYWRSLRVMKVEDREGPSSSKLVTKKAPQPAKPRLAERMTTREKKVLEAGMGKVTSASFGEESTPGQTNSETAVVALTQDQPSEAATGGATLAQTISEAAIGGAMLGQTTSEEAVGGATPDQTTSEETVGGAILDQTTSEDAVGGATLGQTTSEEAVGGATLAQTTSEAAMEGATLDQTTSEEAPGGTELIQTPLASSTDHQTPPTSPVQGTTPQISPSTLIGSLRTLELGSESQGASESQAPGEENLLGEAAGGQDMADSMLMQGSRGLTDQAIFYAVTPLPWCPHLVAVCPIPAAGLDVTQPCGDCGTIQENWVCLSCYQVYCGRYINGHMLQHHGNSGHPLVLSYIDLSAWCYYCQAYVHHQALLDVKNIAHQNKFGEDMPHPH
As to the kind of experiment: HDAC6 Enzyme Assay. The note with it: enzyme inhibition, substrate Ac-Arg-Gly-Lys(Ac)-AMC, 1 hour at 30° C. The class given is biochemical. As for the experimental part:
To measure the inhibition of HDAC6 activity, purified human HDAC6 (BPS Bioscience; Cat. No. 5006) is incubated with substrate Ac-Arg-Gly-Lys(Ac)-AMC peptide (Bachem Biosciences; Cat. No. I-1925) for 1 hour at 30° C. in the presence of test compounds or vehicle DMSO control. The reaction is stopped with the HDAC inhibitor trichostatin A (Sigma; Cat. No. T8552) and the amount of Arg-Gly-Lys-AMC generated is quantitated by digestion with trypsin (Sigma; Cat. No. T1426) and subsequent measurement of the amount of AMC released using a fluorescent plate reader (Pherastar; BMG Technologies) set at Ex 340 nm and Em 460 nm. Concentration response curves are generated by calculating the fluorescence increase in test compound-treated samples relative to DMSO-treated controls, and enzyme inhibition (IC50) values are determined from those curves.

On to `COc1cc(OC)nc(C(=O)N2CCc3cc(C(=O)NO)sc3C2)n1` [Compound 100, 6-[(4,6-dimethoxypyrimidin-2-yl)carbonyl]-N-hydroxy-4,5,6,7-tetrahydrothieno[2,3-c]pyridine-2-carboxamide], for which the IC50 – broadly, the midpoint of a concentration-inhibition curve – lay within 50 to 100 nM.

Compound `O=C(NO)c1cc2c(s1)CN(C(=O)Cc1cc(F)cc(F)c1)CC2` [Compound 52, 6-(2-(3,5-difluorophenyl)acetyl)-N-hydroxy-4,5,6,7-tetrahydrothieno[2,3-c]pyridine-2-carboxamide] gave an IC50 of 50 to 100 nM.

`Cc1cc(C)c(NC(=O)N2CCc3cc(C(=O)NO)sc3C2)c(C)c1` [Compound 176, N^2-hydroxy-N^6-mesityl-4,7-dihydrothieno[2,3-c]pyridine-2,6(5H)-dicarboxamide] returned an IC50 of less than 50 nM.

For the compound `Cc1cc(C(=O)N2CCc3cc(C(=O)NO)sc3C2)c(C)o1` [Compound 178, 6-(2,5-dimethyl-3-furoyl)-N-hydroxy-4,5,6,7-tetrahydrothieno[2,3-c]pyridine-2-carboxamide], the IC50 lay in the range of 50 to 100 nM.

`CC(C)(C)C(=O)N1CCc2cc(C(=O)NO)sc2C1` [Compound 1, 6-(2,2-dimethylpropanoyl)-N-hydroxy-4,5,6,7-tetrahydrothieno[2,3-c]pyridine-2-carboxamide] gave an IC50 of less than 50 nM.

Regarding `Cc1cc(C)n(CC(=O)N2CCc3cc(C(=O)NO)sc3C2)n1` [Compound 125, 6-(2-(3,5-dimethyl-1H-pyrazol-1-yl)acetyl)-N-hydroxy-4,5,6,7-tetrahydrothieno[2,3-c]pyridine-2-carboxamide], the IC50 lay in the range of 50 to 100 nM.

In the case of `Cn1cccc1C(=O)N1Cc2cc(C(=O)NO)sc2C(C)(C)C1` [Compound 210, N-hydroxy-7,7-dimethyl-5-[(1-methyl-1H-pyrrol-2-yl)carbonyl]-4,5,6,7-tetrahydrothieno[3,2-c]pyridine-2-carboxamide], the IC50 was more than 1000 nM.

In turn, `CC(C)(C)OC(=O)N1CCc2sc(C(=O)NO)cc2C1` [Compound 212, tert-butyl 2-[(hydroxyamino)carbonyl]-6,7-dihydrothieno[3,2-c]pyridine-5(4H)-carboxylate] came in with an IC50 of less than 50 nM.

On to `Cc1ccc(CNC(=O)N2CCc3cc(C(=O)NO)sc3C2)cc1` [Compound 103, N2-hydroxy-N-6-(4-methylbenzyl)-4,5-dihydrothieno[2,3-c]pyridine-2,6(5H)-dicarboxamide], for which the IC50 is less than 50 nM.

Compound `O=C(NO)c1cc2c(s1)CN(C(=O)C13CC4CC(CC(C4)C1)C3)C2` [Compound 230, 5-(1-adamantylcarbonyl)-N-hydroxy-5,6-dihydro-4H-thieno[2,3-c]pyrrole-2-carboxamide] gave an IC50 of 50 to 100 nM.

`Cc1c(C(=O)NO)sc2c1CN(C(=O)c1sc3ccccc3c1Cl)CC2` [Compound 221, 5-[(3-chloro-1-benzothien-2-yl)carbonyl]-N-hydroxy-3-methyl-4,5,6,7-tetrahydrothieno[3,2-c]pyridine-2-carboxamide] yielded an IC50 of 50 to 100 nM.

Take `CCCCS(=O)(=O)N1CCc2cc(C(=O)NO)sc2C1` [Compound 19, 6-(butylsulfonyl)-N-hydroxy-4,5,6,7-tetrahydrothieno[2,3-c]pyridine-2-carboxamide]: the IC50 is less than 50 nM.

Regarding `CC(C)(C(=O)N1CCc2cc(C(=O)NO)sc2C1)c1ccc(Cl)cc1` [Compound 4, 6-[2-(4-chlorophenyl)-2-methylpropanoyl]-N-hydroxy-4,5,6,7-tetrahydrothieno[2,3-c]pyridine-2-carboxamide], the IC50 was less than 50 nM.

`Cc1onc(-c2ccccc2)c1C(=O)N1CCc2cc(C(=O)NO)sc2C1` [Compound 107, N-hydroxy-6-[(5-methyl-3-phenylisoxazol-4-yl)carbonyl]-4,5,6,7-tetrahydrothieno[2,3-c]pyridine-2-carboxamide] displayed a 50% inhibitory concentration (IC50) of less than 50 nM.

Regarding `Cc1cccc(NC(=O)N2CCc3cc(C(=O)NO)sc3C2)c1` [Compound 80, N^2-hydroxy-N^6-(3-methylphenyl)-4,7-dihydrothieno[2,3-c]pyridine-2,6(5H)-dicarboxamide], the IC50 is less than 50 nM.

As to `Cc1c(C(=O)N2CCc3cc(C(=O)NO)sc3C2)cnn1-c1ccccc1` [Compound 187, N-hydroxy-6-[(5-methyl-1-phenyl-1H-pyrazol-4-yl)carbonyl]-4,5,6,7-tetrahydrothieno[2,3-c]pyridine-2-carboxamide], the half-inhibitory concentration (IC50) is less than 50 nM.

For the compound `Cc1cc(C(=O)N2CCc3cc(C(=O)NO)sc3C2)ccc1F` [Compound 51, 6-(4-fluoro-3-methylbenzoyl)-N-hydroxy-4,5,6,7-tetrahydrothieno[2,3-c]pyridine-2-carboxamide], the IC50 is less than 50 nM.

For `COc1ccc(C(=O)N2Cc3cc(C(=O)NO)sc3C(C)(C)C2)cc1` [Compound 214, N-hydroxy-5-(4-methoxybenzoyl)-7,7-dimethyl-4,5,6,7-tetrahydrothieno[3,2-c]pyridine-2-carboxamide], the IC50 is more than 1000 nM.

Compound `O=C(NO)c1cc2c(s1)CCN(C(=O)c1cccc3cccnc13)C2` [Compound 30, N-hydroxy-5-(quinolin-8-ylcarbonyl)-4,5,6,7-tetrahydrothieno[3,2-c]pyridine-2-carboxamide] gave an IC50 of less than 50 nM.

As to `CCC(C(=O)N1CCc2cc(C(=O)NO)sc2C1)(c1ccccc1)c1ccccc1` [Compound 9, 6-(2,2-diphenylbutanoyl)-N-hydroxy-4,5,6,7-tetrahydrothieno[2,3-c]pyridine-2-carboxamide], the half-inhibitory concentration (IC50) fell in the range of 50 to 100 nM.

`O=C(NO)c1cc2c(s1)CN(C(=O)c1cccc3cccnc13)CC2` [Compound 99, N-hydroxy-6-(quinoline-8-carbonyl)-4,5,6,7-tetrahydrothieno[2,3-c]pyridine-2-carboxamide] displayed an IC50 of less than 50 nM.

In turn, `O=C(NO)c1cc2c(s1)CN(S(=O)(=O)c1ccc(C(F)(F)F)cc1)CC2` [Compound 21, N-hydroxy-6-{[4-(trifluoromethyl)phenyl]sulfonyl}-4,5,6,7-tetrahydrothieno[2,3-c]pyridine-2-carboxamide] registered an IC50 of less than 50 nM.

Turning to `Cc1nc(CC(=O)N2CCc3cc(C(=O)NO)sc3C2)cs1` [Compound 75, N-hydroxy-6-(2-(2-methylthiazol-4-yl)acetyl)-4,5,6,7-tetrahydrothieno[2,3-c]pyridine-2-carboxamide], the IC50 lay within 50 to 100 nM.

As for `Cc1nc(C(=O)N2Cc3cc(C(=O)NO)sc3C(C)(C)C2)cs1` [Compound 222, N-hydroxy-7,7-dimethyl-5-[(2-methyl-1,3-thiazol-4-yl)carbonyl]-4,5,6,7-tetrahydrothieno[3,2-c]pyridine-2-carboxamide], the IC50 was more than 1000 nM.

Compound `CC1(C(=O)N2CCc3cc(C(=O)NO)sc3C2)CCCCC1` [Compound 3, N-hydroxy-6-[(1-methylcyclohexyl)carbonyl]-4,5,6,7-tetrahydrothieno[2,3-c]pyridine-2-carboxamide] displayed an IC50 of less than 50 nM.

With `CC(C)(C)c1ccc(C(=O)N2CCc3cc(C(=O)NO)sc3C2)cc1` [Compound 64, 6-(4-tert-butylbenzoyl)-N-hydroxy-4,5,6,7-tetrahydrothieno[2,3-c]pyridine-2-carboxamide], the IC50 is less than 50 nM.

`O=C(NO)c1cc2c(s1)CN(C(=O)C13CC4CC(CC(C4)C1)C3)CC2` [Compound 14, 6-[1-adamantylcarbonyl]-N-hydroxy-4,5,6,7-tetrahydrothieno[2,3-c]pyridine-2-carboxamide] registered an IC50 of less than 50 nM.
